Patent publication US9045461B2, “Phenyl-heteroaryl derivatives and methods of use thereof” (TransTech Pharma, LLC, priority 2010, dated 2015)
Structures can show the parent of a compound that is named as a salt.

How the values were obtained:
sRAGE binding to S100b = molecular target: T1, sRAGE binding to S100b (Homo sapiens, UniProt Q15109); test: RAGE binding assay (ELISA), S100b as the RAGE ligand; details: compounds tested in hydrochloride salt form, concentration at which 50% signal has been inhibited
T1 construct: extracellular domain can be isolated by proteolysis of RAGE to generate soluble RAGE (sRAGE) comprised of the V and C domains
Outline: (§1)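 Ligand (500 ng/well) coated in carbonate buffer pH 9.8 overnight at 4° C and blocked with 1% BSA; test compound (10-100 μM in water, 4% DMSO co-solvent) incubated with sRAGE (6 nM FAC) 1 h at 37° C. Bound sRAGE detected by anti-sRAGE/biotin-anti-mouse/AP-streptavidin with pNPP, A405. IC50 = 50% signal inhibition.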

[1] = molecular target: T2, sRAGE binding to β-amyloid (Homo sapiens, UniProt Q15109); test: RAGE binding assay (ELISA), β-amyloid as the RAGE ligand; details: compounds tested in hydrochloride salt form, concentration at which 50% signal has been inhibited
T2 construct: extracellular domain can be isolated by proteolysis of RAGE to generate soluble RAGE (sRAGE) comprised of the V and C domains
Outline: as §1

T2 sequence (Q15109 23-342 limits assumed): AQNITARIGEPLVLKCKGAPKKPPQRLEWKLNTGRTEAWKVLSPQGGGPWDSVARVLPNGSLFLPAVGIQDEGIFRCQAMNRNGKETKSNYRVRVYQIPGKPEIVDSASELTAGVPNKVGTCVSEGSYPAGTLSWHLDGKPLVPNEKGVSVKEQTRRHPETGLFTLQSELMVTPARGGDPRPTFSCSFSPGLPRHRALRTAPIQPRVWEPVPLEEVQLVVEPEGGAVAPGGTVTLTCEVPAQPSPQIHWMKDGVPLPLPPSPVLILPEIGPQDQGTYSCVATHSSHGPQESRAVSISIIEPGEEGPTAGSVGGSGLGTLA
T1 sequence (Q15109 23-342 limits assumed): as above

Work on `CCCCc1nnc(OC2CCN(C)CC2)cc1-c1ccc(OCCC2CCCCC2)cc1` [Example 52, 3-butyl-4-[4-(2-cyclohexyl-ethoxy)-phenyl]-6-(1-methyl-piperidin-4-yloxy)-pyridazine dihydrochloride] yielded an IC50 (sRAGE binding to S100b) of 0.65 µM and an IC50 [1] of 0.69 µM.
`CCCCc1nnc(OC[C@H]2CN(C)C[C@@H]2CO)cc1-c1ccc(OCc2ccccc2)cc1` (racemic) [Example 6, (±)-trans-{4-[5-(4-Benzyloxy-phenyl)-6-butyl-pyridazin-3-yloxymethyl]-1-methyl-pyrrolidin-3-yl}-methanol dihydrochloride] showed an IC50 (sRAGE binding to S100b) of 2.13 µM and an IC50 [1] of 2.33 µM.
`CCCCc1nnc(OC2CCN(C)CC2)cc1-c1ccc(OCC2CCOCC2)cc1` [Example 54, 3-butyl-6-(1-methyl-piperidin-4-yloxy)-4-[4-(tetrahydro-pyran-4-ylmethoxy)-phenyl]-pyridazine dihydrochloride] showed an IC50 (sRAGE binding to S100b) of 3.65 µM and an IC50 [1] of 5.45 µM.
`CN1CCC(Oc2cc(-c3ccc(OC4CCCCC4)cc3)c(C3CCCCC3)nn2)CC1` [Example 60, 3-cyclohexyl-4-(4-cyclohexyloxy-phenyl)-6-(1-methyl-piperidin-4-yloxy)-pyridazine dihydrochloride] showed an IC50 (sRAGE binding to S100b) of 1.13 µM and an IC50 [1] of 1.83 µM.
`CCCCc1nnc(C(=O)NC2CCN(C)CC2)cc1-c1ccc(OCc2ccccc2)cc1` [Example 80, 5-(4-Benzyloxy-phenyl)-6-butyl-pyridazine-3-carboxylic acid (1-methyl-piperidin-4-yl)-amide dihydrochloride] gave an IC50 (sRAGE binding to S100b) of 1.25 µM and an IC50 [1] of 1.25 µM.
`CCCCc1nnc(OC2CCN(CCO)CC2)cc1-c1ccc(OC2CCCCC2)cc1` [Example 17, 2-{4-[6-Butyl-5-(4-cyclohexyloxy-phenyl)-pyridazin-3-yloxy]-piperidin-1-yl}-ethanol dihydrochloride] gave an IC50 (sRAGE binding to S100b) of 0.81 µM and an IC50 [1] of 0.82 µM.
Work on `CCCCc1nnc(OC[C@H]2CN(C)CC[C@H]2OC)cc1-c1ccc(OC2CCCCC2)cc1` (racemic) [Example 44, (±)-cis-3-Butyl-4-(4-cyclohexyloxy-phenyl)-6-(4-methoxy-1-methyl-piperidin-3-ylmethoxy)-pyridazine dihydrochloride] yielded an IC50 (sRAGE binding to S100b) of 0.48 µM and an IC50 [1] of 0.32 µM.
`CCCCc1nnc(C(=O)NC[C@H]2CCCN2CC)cc1-c1ccc(OC2CCCCC2)cc1` [Example 91, 6-Butyl-5-(4-cyclohexyloxy-phenyl)-pyridazine-3-carboxylic acid ((R)-1-ethyl-pyrrolidin-2-ylmethyl)-amide dihydrochloride] was tested, and the IC50 (sRAGE binding to S100b) was 1.14 µM and the IC50 [1] was 1.39 µM.
With `CCCCc1nnc(OC[C@H]2CN(C)CC[C@@H]2OC)cc1-c1ccc(OC2CCCCC2)cc1` (racemic) [Example 46, (±)-trans-3-Butyl-4-(4-cyclohexyloxy-phenyl)-6-(4-methoxy-1-methyl-piperidin-3-ylmethoxy)-pyridazine dihydrochloride] the IC50 (sRAGE binding to S100b) was 1.35 µM and the IC50 [1] was 1.25 µM.
Work on `CCCCc1nnc(C(=O)NCC2(OC)CCN(C)CC2)cc1-c1ccc(OC2CCCCC2)cc1` [Example 89, 6-Butyl-5-(4-cyclohexyloxy-phenyl)-pyridazine-3-carboxylic acid (4-methoxy-1-methyl-piperidin-4-ylmethyl)-amide dihydrochloride] yielded an IC50 (sRAGE binding to S100b) of 2.73 µM and an IC50 [1] of 2.01 µM.
`CCCCc1nnc(OC2CCN(CCc3nnn(C)n3)CC2)cc1-c1ccc(OC2CCCCC2)cc1` [Example 21, 3-Butyl-4-(4-cyclohexyloxy-phenyl)-6-{1-[2-(2-methyl-2H-tetrazol-5-yl)-ethyl]-piperidin-4-yloxy}-pyridazine dihydrochloride] gave an IC50 (sRAGE binding to S100b) of 1.34 µM and an IC50 [1] of 1.53 µM.
For `CCCCc1nnc(O[C@H]2CC[C@H](NC)CC2)cc1-c1ccc(OC2CCCCC2)cc1` [Example 37, {4-[6-Butyl-5-(4-cyclohexyloxy-phenyl)-pyridazin-3-yloxy]-cyclohexyl}-methyl-amine dihydrochloride], the IC50 (sRAGE binding to S100b) was 1.87 µM and the IC50 [1] was 1.65 µM.
Work on `CCCCc1nnc(OC2CCN(C)CC2)cc1-c1ccc(OC2CCCC2)cc1` [Example 51, 3-butyl-4-(4-cyclopentyloxy-phenyl)-6-(1-methyl-piperidin-4-yloxy)-pyridazine dihydrochloride] yielded an IC50 (sRAGE binding to S100b) of 2.94 µM and an IC50 [1] of 2.62 µM.
Work on `CCCCc1nnc(O[C@H]2CCN(C)C[C@H]2F)cc1-c1ccc(OC2CCCCC2)cc1` (racemic) [Example 42, (±)-cis-3-Butyl-4-(4-cyclohexyloxy-phenyl)-6-(3-fluoro-1-methylpiperidin-4-yloxy)-pyridazine dihydrochloride] yielded an IC50 (sRAGE binding to S100b) of 2.21 µM and an IC50 [1] of 1.8 µM.
With `CCCCc1nnc(OCC2CN(C)CCC2(F)F)cc1-c1ccc(OC2CCCCC2)cc1` (stereo not shown) [Example 39, 3-Butyl-4-(4-cyclohexyloxy-phenyl)-6-(4,4-difluoro-1-methyl-piperidin-3-ylmethoxy)-pyridazine dihydrochloride] the IC50 (sRAGE binding to S100b) was 1.22 µM and the IC50 [1] was 1.5 µM.
With `CCCCc1c(-c2ccc(OC3CCCCC3)cc2)cc(OC2CCN(C)CC2)n[n+]1[O-]` [Example 40, 3-Butyl-4-(4-cyclohexyloxy-phenyl)-6-(1-methyl-piperidin-4-yloxy)-pyridazine 2-oxide hydrochloride] the IC50 (sRAGE binding to S100b) was 2.98 µM and the IC50 [1] was 2.18 µM.
In the case of `CCCCc1nnc(C(=O)N2CCO[C@H](CN(C)C)C2)cc1-c1ccc(OC2CCCCC2)cc1` [Example 98, [6-Butyl-5-(4-cyclohexyloxy-phenyl)-pyridazin-3-yl]-((R)-2-dimethylaminomethyl-morpholin-4-yl)-methanone dihydrochloride], the IC50 (sRAGE binding to S100b) is reported as 1.99 µM and the IC50 [1] is reported as 1.62 µM.
In the case of `CCCCc1nnc(C(=O)NCC2CCN(C)CC2)cc1-c1ccc(OC2CCCCC2)cc1` [Example 103, 6-Butyl-5-(4-cyclohexyloxy-phenyl)-pyridazine-3-carboxylic acid (1-methyl-piperidin-4-ylmethyl)-amide dihydrochloride], the IC50 (sRAGE binding to S100b) is reported as 1.77 µM and the IC50 [1] is reported as 1.11 µM.
`CCCCc1nnc(C(=O)NC2CCN(C)CC2)cc1-c1ccc(OC2CCCCC2)cc1` [Example 84, 6-Butyl-5-(4-cyclohexyloxy-phenyl)-pyridazine-3-carboxylic acid (1-methyl-piperidin-4-yl)-amide dihydrochloride] was tested, and the IC50 (sRAGE binding to S100b) was 1.56 µM and the IC50 [1] was 1.96 µM.
With `CCCCc1nnc(OC2CCN(C)CC2)cc1-c1ccc(OC2CCCCC2)c(N(CC(C)C)C(C)=O)c1` [Example 63, N-{5-[3-butyl-6-(1-methyl-piperidin-4-yloxy)-pyridazin-4-yl]-2-cyclohexyloxy-phenyl}-N-isobutyl-acetamide dihydrochloride] the IC50 (sRAGE binding to S100b) was 0.84 µM and the IC50 [1] was 0.68 µM.
For `CCCCc1nnc(OC2CCN(C)CC2)cc1-c1ccc(OC(C)C)cc1` [Example 49, 3-Butyl-4-(4-isopropoxy-phenyl)-6-(1-methyl-piperidin-4-yloxy)-pyridazine dihydrochloride], the IC50 (sRAGE binding to S100b) was 3.94 µM and the IC50 [1] was 6.26 µM.
Work on `CCCCc1nnc(OC2CCN(C)CC2)cc1-c1ccc(OC2CCCCC2)c(N(CC(C)C)S(C)(=O)=O)c1` [Example 64, N-{5-[3-butyl-6-(1-methyl-piperidin-4-yloxy)-pyridazin-4-yl]-2-cyclohexyloxy-phenyl}-N-isobutyl-methanesulfonamide dihydrochloride] yielded an IC50 (sRAGE binding to S100b) of 0.88 µM and an IC50 [1] of 0.84 µM.
`CCCCc1nnc(OC2CCN(C)CC2)cc1-c1ccc(Oc2ccc(C)nn2)cc1` [Example 57, 3-butyl-6-(1-methyl-piperidin-4-yloxy)-4-[4-(6-methyl-pyridazin-3-yloxy)-phenyl]-pyridazine trihydrochloride] showed an IC50 (sRAGE binding to S100b) of 3.27 µM and an IC50 [1] of 4.56 µM.
